Results published in patent US8779156B2, “Analogues for the treatment or prevention of flavivirus infections” (Vertex Pharmaceuticals Incorporated, priority 2010, dated 2014).

Test system: HCV (1b) replicon, Huh-ET cells
Assay: Cell-based luciferase reporter HCV (1b) RNA replication assay
Conditions: Hepatitis C virus, 96 h; HCV 1b replicon, luciferase, 4 days incubation; read-out: EC50_1b
From the text: Cell-Based Luciferase Reporter HCV (Ib) RNA Replication Assay Cell Culture
Replicon cell lines Huh-5.2 are derived from the Huh-7 hepatocarcinoma cell line are maintained in culture as generally described in Krieger, N; Lohmann, V; Bartenschlager, R. Enhancement of hepatitis C virus RNA replication by cell culture-adaptive mutations. J. Virol. 2001, 75, 4614-4624. The Huh-5.2 cells contain the highly cell culture-adapted replicon I389luc-ubi-neo/NS3-375.1 construct that carries, in addition to the neomycin gene, an integrated copy to the firefly luciferase gene (Krieger, N; Lohmann, V; Bartenschlager, R. Enhancement of hepatitis C virus RNA replication by cell culture-adaptive mutations. J. Virol. 2001, 75, 4614-4624). This cell line allows measurement of HCV RNA replication and translation by measuring luciferase activity. It has been previously shown that the luciferase activity tightly follows the replicon RNA level in these cells (Krieger, N; Lohmann, V; Bartenschlager, R. Enhancement of hepatitis C virus RNA replication by cell culture-adaptive mutations. J. Virol. 2001, 75, 4614-4624). The Huh-ET cell line has the same features as those mentioned for Huh-5.2 cell line, except that ET cells are more robust and contain an adaptative mutation in the HCV NS4B gene instead of NS5A. Both cell lines are maintained in cultures at a sub-confluent level (<85%) as the level of replicon RNA is highest in actively proliferating cells. The culture media used for cell passaging consist of DMEM (Gibco BRL Laboratories, Mississauga, ON, Canada) supplemented with 10% foetal bovine serum with 1% penicilin/streptomycin, 1% glutamine, 1% sodium pyruvate, 1% non-essential amino acids, and 180 μg/ml of G418 final concentration. Cells are incubated at 37° C., in an atmosphere of 5% CO2 and passaged twice a week to maintain sub-confluence.
Approximately 3000 viable Huh-ET cells (100 μl) are plated per well in a white opaque 96-well microtiter plate. The cell culture media used for the assay is the same as described above except that it contains no G418 and no phenol red. After an incubation period of 3-4 hours at 37° C. in a 5% CO2 incubator, compounds (100 μl) are added at various concentrations. Cells are then further incubated for 4 days at 37° C. in a 5% CO2 incubator. Thereafter, the culture media is removed and cells are lysed by the addition of 95 μL of the luciferase buffer (luciferin substrate in buffered detergent). Cell lysates are incubated at room temperature and protected from direct light for at least 10 minutes. Plates are read for luciferase counts using a luminometer (Wallac MicroBeta Trilux, Perkin Elmer™, MA, USA).
Curves are fitted to data points using nonlinear regression analysis, and IC50s are interpolated from the resulting curve using GraphPad Prism software, version 2.0 (GraphPad Software Inc., San Diego, Calif., USA).

SMILES | EC50 [nM]
COC(=O)N[C@H](C(=O)N1C[C@@H](C)C[C@H]1c1nc(C#Cc2ccc(-c3ccc4[nH]c([C@@H]5C[C@H](C)CN5C(=O)[C@@H](NC(=O)OC)C(C)C)nc4c3)cc2)c[nH]1)C(C)C [Compound 12, Methyl N-[(1S)-1-[(2S,4S)-2-[4-[2-[4-[2-[(2S,4S)-1-[(2S)-2-(methoxycarbonylamino)-3-methyl-butanoyl]-4-methyl-pyrrolidin-2-yl]-1H-benzimidazol-5-yl]phenyl]ethynyl]-1H-imidazol-2-yl]-4-methyl-pyrrolidine-1-carbonyl]-2-methyl-propyl]carbamate] | ≤ 5
COC(=O)N[C@H](C(=O)N1C[C@@H](C)C[C@H]1c1ncc(-c2csc(-c3ccc(-c4ccc5[nH]c([C@@H]6C[C@H](C)CN6C(=O)[C@@H](NC(=O)OC)C(C)C)nc5c4)cc3)c2)[nH]1)C(C)C [Compound 14] | ≤ 5
COC(=O)N[C@H](C(=O)N1C[C@@H](C)C[C@H]1c1nc(C)c(-c2ccc(-c3ccc(-c4ccc5[nH]c([C@@H]6C[C@H](C)CN6C(=O)[C@@H](NC(=O)OC)C(C)C)nc5c4)cc3)cc2)[nH]1)C(C)C [Compound 15, Methyl N-[(1S)-1-[(2S,4S)-2-[5-[4-[4-[2-[(2S,4S)-1-[(2S)-2-(methoxycarbonylamino)-3-methyl-butanoyl]-4-methyl-pyrrolidin-2-yl]-1H-benzimidazol-5-yl]phenyl]phenyl]-4-methyl-1H-imidazol-2-yl]-4-methyl-pyrrolidine-1-carbonyl]-2-methyl-propyl]carbamate] | ≤ 5
COC(=O)N[C@H](C(=O)N1C[C@@H](C)C[C@H]1c1nc(-c2cc3sc(-c4ccc5[nH]c([C@@H]6C[C@H](C)CN6C(=O)[C@@H](NC(=O)OC)C(C)C)nc5c4)cc3s2)c[nH]1)C(C)C [Compound 16, Methyl N-[(1S)-1-[(2S,4S)-2-[4-[5-[2-[(2S,4S)-1-[(2S)-2-(methoxycarbonylamino)-3-methyl-butanoyl]-4-methyl-pyrrolidin-2-yl]-1H-benzimidazol-5-yl]thieno[3,2-b]thiophen-2-yl]-1H-imidazol-2-yl]-4-methyl-pyrrolidine-1-carbonyl]-2-methyl-propyl]carbamate] | ≤ 5
CC[C@H]1C[C@@H](c2nc(-c3ccc(-c4ccc(-c5ccc6[nH]c([C@@H]7C[C@H](CC)CN7C(=O)[C@@H](NC(=O)OC)C(C)C)nc6c5)cc4)cc3)c[nH]2)N(C(=O)[C@@H](NC(=O)OC)C(C)C)C1 [Compound 17] | ≤ 5
COC(=O)N[C@H](C(=O)N1C[C@@H](C)C[C@H]1c1nc(-c2cc3sc(-c4ccc5[nH]c([C@@H]6C[C@H](C)CN6C(=O)[C@@H](NC(=O)OC)C(C)C)nc5c4)cc3s2)c(C)[nH]1)C(C)C [Compound 19] | ≤ 5
COC(=O)N[C@H](C(=O)N1C[C@@H](C)C[C@H]1c1nc(-c2ccc3cc(-c4ccc5[nH]c([C@@H]6C[C@H](C)CN6C(=O)[C@@H](NC(=O)OC)C(C)C)nc5c4)ccc3c2)c[nH]1)C(C)C [Compound 20] | ≤ 5
COC(=O)N[C@H](C(=O)N1CC(C)(C)C[C@H]1c1nc(-c2ccc(-c3ccc(-c4ccc5[nH]c([C@@H]6CC(C)(C)CN6C(=O)[C@@H](NC(=O)OC)C(C)C)nc5c4)cc3)cc2)c[nH]1)C(C)C [Compound 23] | ≤ 5
COC(=O)N[C@H](C(=O)N1C[C@@H](C)C[C@H]1c1ncc(-c2ccc(-c3cc4sc(-c5ccc6nc([C@@H]7C[C@H](C)CN7C(=O)[C@@H](NC(=O)OC)C(C)C)[nH]c6c5)cc4s3)cc2)[nH]1)C(C)C [Compound 25] | ≤ 5
COC(=O)N[C@H](C(=O)N1C[C@@H](C)C[C@H]1c1nc(-c2ccc(-c3ccc4nc([C@@H]5C[C@H](C)CN5C(=O)[C@@H](NC(=O)OC)C(C)C)[nH]c4c3)cc2)c(-c2cc3sccc3s2)[nH]1)C(C)C [Compound 26] | ≤ 5
COC(=O)N[C@H](C(=O)N1C[C@@H](C)C[C@H]1c1nc(-c2ccc(-c3ccc(-c4ccc5[nH]c([C@@H]6C[C@H](C)CN6C(=O)[C@@H](NC(=O)OC)C(C)C)nc5c4)s3)cc2)c[nH]1)C(C)C [Compound 27] | ≤ 5
